# Experimental data published in patent publication US4510143A, “Antiallergic pyrimido[1,2-a]quinoxalin-2-carboxylic acid derivatives” (Roussel Uclaf, priority 1982, dated 1985).
# System: passive cutaneous reaction mediated by Ig G antibodies
# Test: Passive cutaneous anaphylaxis in the rat (PCR), inhibition of Ig G PCR after oral administration
# Type: in vivo
# Settings: male Wistar rats, 4 hour sensitization, 1 mg ovalbumen challenge
# Method: Passive cutaneous anaphylaxis in the rat (PCR)
# Passive cutaneous anaphylaxis in the rat was carried out in male Wistar rats weighing 180-200 g which were sensitized by intradermal injection into four sites on shaved backs to produce a passive cutaneous reaction mediated by Ig G antibodies (a 4 hour sensitization following injection of antiserum heated at 56° C. for one hour). Antigen challenge was carried out in the same way with 1 mg of ovalbumen together with 0.5 ml of 1% Evans blue dye solution being injected intravenously and 30 minutes later, the animals were killed and the severity and area of each blue spot was scored when viewed from the reverse side of the skin.
Structure (SMILES),% inhibition of Ig G PCR (0.1 mg/kg) [%],% inhibition of Ig G PCR (1 mg/kg) [%],% inhibition of Ig G PCR (10 mg/kg) [%]
"O=C(O)c1cnc2c(=O)[nH]c3ccccc3n2c1=O [Example 8, 1,5-dioxo-1,6-dihydropyrimido[1,2-a]quinoxalin-2-carboxylic acid]",40.5,52.4,94.1
"O=C(O)c1cnc2cnc3ccccc3n2c1=O [Example 1, 1-oxo-1H-pyrimido[1,2-a]quinoxaline-2-carboxylic acid]",–,9.9,50.3
"O=C(Nc1nnn[nH]1)c1cnc2cnc3ccccc3n2c1=O [Example 2, N-(5-Tetrazolyl)-1-oxo-1H-pyrimido[1,2-a]quinoxaline-2-carboxamide]",–,29.9,48.6
Cn1c(=O)c2ncc(C(=O)O)c(=O)n2c2ccccc21 [Example 10],–,15.6,20.5
O=C(Nc1nn[nH]n1)c1cnc2c(=O)[nH]c3ccccc3n2c1=O [Example 9],19,23,35
